Assay results published in a compilation of properties of binary mixtures (doi:10.1051/jnwpu/20234130557).

Assay: xn = mol fraction of the nth substance listed
Conditions: 298.15 K, 101.3 kPa

CCCC[n+]1cccc(C)c1.O=S(=O)([N-]S(=O)(=O)C(F)(F)F)C(F)(F)F + CO
Conditions | electrical conductivity [S/m]
x2 = 0 | 0.273
x2 = 0.2345 | 0.453
x2 = 0.5544 | 0.951
x2 = 0.7016 | 1.38
x2 = 0.8346 | 1.93
x2 = 0.882 | 2.1
x2 = 0.9199 | 2.13

CCCC[n+]1cccc(C)c1.O=S(=O)([N-]S(=O)(=O)C(F)(F)F)C(F)(F)F + CC(C)O
Conditions | electrical conductivity [S/m]
x2 = 0.0802 | 0.334
x2 = 0.1045 | 0.41
x2 = 0.1234 | 0.462
x2 = 0.1455 | 0.511
x2 = 0.177 | 0.566
x2 = 0.2193 | 0.613
x2 = 0.2497 | 0.633
x2 = 0.4682 | 0.587
x2 = 0.6921 | 0.441
x2 = 0.9362 | 0.3

CC(C)O + CCCC[n+]1cccc(C)c1.O=S(=O)([N-]S(=O)(=O)C(F)(F)F)C(F)(F)F
Conditions | electrical conductivity [S/m]
x1 = 1 | 0.27

CCCC[n+]1cccc(C)c1.O=S(=O)([N-]S(=O)(=O)C(F)(F)F)C(F)(F)F + CCO
Conditions | electrical conductivity [S/m]
x2 = 0.2427 | 0.445
x2 = 0.5689 | 0.809
x2 = 0.7583 | 1.04
x2 = 0.8896 | 0.992
x2 = 0.9196 | 0.883
x2 = 0.9371 | 0.783
